Experimental data published in patent US11897875B2, “Deuterated Alpha5 subunit-selective negative allosteric modulators of gamma-aminobutyric acid type a receptors as fast acting treatment for depression and mood disorders” (UNIVERSITY OF MARYLAND, BALTIMORE, priority 2017, dated 2024).

Tests used:
human liver hepatocytes = assay: metabolic stability in human hepatocytes in vitro; format: in vitro ADME
Text: (§1) Table 1, below, presents data regarding the half-life of […] in rat and human liver hepatocytes, in vitro, showing an increase in half-life for the deuterated compounds. Stability improved more in human hepatocytes compared to rat hepatocytes, with variation between the hepatocyte studies. […] Longer half-life also allows less frequent dosing. […] Deuteration preferably is located at the site of metabolism, since installing deuterium atoms at the site of metabolism more readily increases the half-life of the compound.

[1] = test system: rats subjected to chronic multimodal stress; assay: sucrose preference test in rats under chronic multimodal stress; format: in vivo, rat; details: for sucrose preference (sucrose solution consumed as percentage of total): single injection, NCGC-43 3 mg/kg or ketamine 20 mg/kg, 24 hours, 7 days, 14 days after injection, stress continued
Description: In the sucrose preference test, rats were given an overnight two bottle choice task (in which the sucrose solution consumption is shown as a percentage of the total solution consumed) before commencing stress (baseline), immediately after 14 days of chronic multimodal stress, and 24 hours, 7 days, and 14 days after an injection of NCGC-43 (3 mg/kg, gray), ketamine (20 mg/kg, orange), or vehicle (DMSO solution, blue), all while continuing with daily chronic multimodal stress. A control group received neither stress nor drug (yellow).

[2] = test system: rats subjected to chronic multimodal stress; assay: social interaction test in rats after chronic multimodal stress; format: in vivo, rat; details: single injection, NCGC-43 3 mg/kg or ketamine 20 mg/kg; 24 hours after injection
Description: […] In the social interaction test, rats were given a choice between spending time in a chamber with a novel caged juvenile rat and a chamber with an empty cage before commencing stress (baseline), immediately after 14 days of chronic multimodal stress, and 24 hours after an injection of NCGC-43 (3 mg/kg, gray), ketamine (20 mg/kg, orange), or vehicle (DMSO solution, blue). Social interaction computed as percent time spent with the novel animal. A control group received neither stress nor drug (yellow).

[3] = test system: naïve rats and rats subjected to 14 days of chronic multimodal stress; assay: forced swim test; format: in vivo, rat; details: for time the animals spent immobile / latency until the animals ceased to struggle and become immobile: NCGC-43 3 mg/kg or ketamine 20 mg/kg, 24 hours after injection; for time the animals spent immobile: vs stressed animals given vehicle (FIG. 6A); for latency until the animals ceased to struggle and become immobile: vs stressed animals given vehicle (FIG. 6B)
Text: NCGC-43 and ketamine both exert an antidepressant-like response in this test. […] See also FIG. 6C and FIG. 6D.

[4] = test system: rats subjected to chronic multimodal stress; assay: open field test; format: in vivo, rat; details: 3 mg/kg
Description: FIG. 4A is a schematic of the open field test. […] Behavioral measurements were made before commencing stress (baseline), immediately after 14 days of chronic multimodal stress, and 24 hours after an injection of NCGC-43 (3 mg/kg) or vehicle (DMSO solution).

rat liver hepatocytes = assay: metabolic stability in rat hepatocytes in vitro; format: in vitro ADME; details: 3 hours
Text: as §1

[5] = metabolic stability in rat hepatocytes in vitro; format: in vitro ADME; details: rat liver hepatocytes
Text: as §1

[6] = as a nootropic; cited from earlier work
[7] = metabolic stability in human hepatocytes in vitro; format: in vitro ADME; details: human liver hepatocytes; human hepatocytes in vitro
Text: as §1

[8] = test system: rats subjected to chronic multimodal stress; assay: elevated plus maze; format: in vivo, rat; details: NCGC-43 3 mg/kg or ketamine 20 mg/kg; 24 hours after injection
Description: In the elevated plus maze, rats were given a choice between spending time in one of two arms of an elevated cross-shaped maze (one arm closed and the other arm open), immediately after 14 days of chronic multimodal stress, and 24 hours after an injection of NCGC-43 (3 mg/kg) or ketamine (20 mg/kg). A control group was unstressed and received a vehicle injection (DMSO).

[2H]C([2H])([2H])c1onc(-c2ccc(F)cc2)c1COc1ccc(C(=O)N2CCS(=O)(=O)CC2)cn1 [NCGC-43, (1,1-dioxidothiomorpholino)(6-((3-(4-fluorophenyl)-5-(methyl-d3)isoxazol-4-yl)methoxy)pyridin-3-yl)methanone]
Half-life (hours) (human liver hepatocytes; human hepatocytes in vitro): Stable
Percentage Remaining at 3 Hours (human liver hepatocytes; human hepatocytes in vitro): 100%
metabolic stability compared with non-deuterated RG-1662 (human liver hepatocytes; rat and human hepatocytes in vitro, improved more in human): more metabolically stable
antidepressant effects compared with ketamine ([1]; NCGC-43 3 mg/kg vs ketamine 20 mg/kg): comparable to ketamine
sucrose preference (sucrose solution consumed as percentage of total) [1]: restored sucrose preference in a rapid (within 24 hours) and persistent (up to 14 days) manner
social interaction (percent time spent with the novel animal) [2]: restored their preference for interacting with a novel animal
time course of effect (responses at 1 hour and 24 hours) ([3]; 3 mg/kg, 1 hour vs 24 hours after injection): rapid and persistent effects similar to those described previously for ketamine
time the animals spent immobile [3]: a decrease in the time the animals spent immobile
latency until the animals ceased to struggle and become immobile [3]: an increase in the latency
latency to immobility, dose-response ([3]; intraperitoneal, increasing doses, 1 or 24 hours after injection (FIG. 7)): significant efficacy at 1 and 3 mg/kg
overall locomotor activity ([4]; 24 hours after injection (FIG. 4B)): neither chronic stress nor injection of NCGC-43 or vehicle had any significant effects
time spent in the corners and sides ([4]; 24 hours after injection (FIG. 4C)): neither chronic stress nor injection of NCGC-43 or vehicle had any significant effects
ratio of time spent in the center of the chamber to time spent in the corners/sides ([4]; 24 hours after injection (FIG. 4D)): neither chronic stress nor injection of NCGC-43 or vehicle had any significant effects
latency before the animals first entered the center of the chamber ([4]; 24 hours after injection (FIG. 4E)): mildly decreased the latency
Percentage Remaining at 3 Hours (rat liver hepatocytes): 3.9%
half-life [5]: 38.4 min

Cc1onc(-c2ccc(F)cc2)c1COc1ccc(C(=O)N2CCS(=O)(=O)CC2)cn1 [RG-1662, (1,1-Dioxidothiomorpholino)(6-((3-(4-fluorophenyl)-5-methylisoxazol-4-yl)methoxy)pyridin-3-yl)methanone, reference compound]
efficacy in phase II clinical trials [6]: not efficacious
safety in phase II clinical trials [6]: safe
Percentage Remaining at 3 Hours (human liver hepatocytes; human hepatocytes in vitro): 83.7%
half-life [7]: 720 min
Percentage Remaining at 3 Hours (rat liver hepatocytes): 3.3%
half-life [5]: 36 min

CNC1(c2ccccc2Cl)CCCCC1=O (stereo not drawn) [ketamine, reference compound]
sucrose preference (sucrose solution consumed as percentage of total) [1]: restored sucrose preference in a rapid (within 24 hours) and persistent (up to 14 days) manner
social interaction (percent time spent with the novel animal) [2]: restored their preference for interacting with a novel animal
time the animals spent immobile [3]: a decrease in the time the animals spent immobile
latency until the animals ceased to struggle and become immobile [3]: an increase in the latency
percent of time spent in the closed arm [8]: increased the percent of time the rat spent in the closed arm
